Test results taken from patent US20260365673A1, “PYRROLO[2,3-D]PYRIMIDIN-4-AMINE DERIVATIVE AND USE THEREOF IN MEDICINE” (HAISCO PHARMACEUTICAL GROUP CO., LTD., priority 2023, published 2026).

Legend:
[1] = Pharmacokinetic Test in Rats (Inhalation Administration); details: rat, in vivo, inhaled or intranasal, male SD rats, single dose 0.03 mg/kg; for Cmax / AUC(0-t): lung tissue; for AUC(0-t): read-out: Lung AUC0-t; for Kp: read-out: Lung AUC0-t/plasma AUC0-t
Experimental: 4: Pharmacokinetic Test in Rats (Inhalation Administration)
The samples were analyzed quantitatively by LC-MS/MS.

[2] = 12-week, PATENT-1, riociguat group, cited from earlier work

Structure (SMILES)	Cmax [1]	AUC(0-t) [1]	Kp [1]	anemia ([2]; placebo 2%)	gastroesophageal reflux disease ([2]; placebo 2%)	diarrhea ([2]; placebo 8%)
CC(C)(Cc1csc([C@]2(C)C(=O)Nc3nc(-c4nc(Cc5ccccc5F)n5ncccc45)nc(N)c32)n1)C(=O)O [Compound 19-1]	2840 ng/mL	12200 ng·h/mL	245	–	–	–
CC(C)(Cc1cccc([C@@]2(C)C(=O)Nc3nc(-c4nn(CCC(F)(F)C(F)(F)F)c5cc(Cl)cnc45)nc(N)c32)c1)C(=O)O [Compound 6-1]	2820 ng/mL	5170 ng·h/mL	659	–	–	–
CC(C)(Cc1csc(C2(C)C(=O)Nc3nc(-n4nc(CCC(F)(F)C(F)(F)F)c5ncc(F)cc54)nc(N)c32)n1)C(=O)O (single isomer, unassigned) [Compound 37-1]	1730 ng/mL	3280 ng·h/mL	–	–	–	–
CC(C)(Cc1csc([C@]2(C)C(=O)Nc3nc(-n4c(=O)n(CCC(F)(F)C(F)(F)F)c5cc(F)ccc54)nc(N)c32)n1)C(=O)O [Compound 31-1]	1180 ng/mL	608 ng·h/mL	97.9	–	–	–
CC(C)(Cc1csc(C2(C)C(=O)Nc3nc(-n4nc(Cc5ccccc5F)c5ncc(F)cc54)nc(N)c32)n1)C(=O)O (single isomer, unassigned) [Compound 35-1]	2540 ng/mL	5430 ng·h/mL	–	–	–	–
CC(C)(Cc1csc(C2(C)C(=O)Nc3nc(-n4nc(Cc5cccc(F)c5F)c5ncc(F)cc54)nc(N)c32)n1)C(=O)O (single isomer, unassigned) [Compound 36-1]	4070 ng/mL	10100 ng·h/mL	49.1	–	–	–
CC(C)(Cc1csc([C@]2(C)C(=O)Nc3nc(-n4nc(CCC(F)(F)C(F)(F)F)c5cc(F)ccc54)nc(N)c32)n1)C(=O)O [Compound 17-1]	1750 ng/mL	2020 ng·h/mL	48.4	–	–	–
CC(C)(Cc1csc([C@]2(C)C(=O)Nc3nc(-c4nc(CCC(F)(F)C(F)(F)F)n5ncccc45)nc(N)c32)n1)C(=O)O [Compound 3-1]	2980 ng/mL	3630 ng·h/mL	65	–	–	–
COC(=O)N(C)c1c(N)nc(-c2nn(Cc3ccccc3F)c3ncccc23)nc1N [riociguat, Riociguat]	–	–	–	7%	5%	12%
CC(C)(Cc1csc([C@]2(C)C(=O)Nc3nc(-n4nc(CCC(F)(F)C(F)(F)F)c5cc(Cl)ccc54)nc(N)c32)n1)C(=O)O (single isomer, unassigned) [Compound 4-1]	2350 ng/mL	2460 ng·h/mL	77.1	–	–	–
CC(C)(Cc1csc([C@]2(C)C(=O)Nc3nc(-n4c(=O)n(Cc5ccccc5F)c5cc(F)ccc54)nc(N)c32)n1)C(=O)O [Compound 38-1]	1740 ng/mL	–	83.6	–	–	–
CC(C)(Cc1csc([C@]2(C)C(=O)Nc3nc(-c4nn(CCC(F)(F)C(F)(F)F)c5ncccc45)nc(N)c32)n1)C(=O)O [Control compound 1, reference compound]	273 ng/mL	220 ng·h/mL	–	–	–	–
CC(C)(Cc1csc([C@]2(C)C(=O)Nc3nc(-c4nc(CCC(F)(F)C(F)(F)F)n5cc(F)ccc45)nc(N)c32)n1)C(=O)O [Compound 45-1]	2850 ng/mL	4500 ng·h/mL	43.4	–	–	–
